system: tip of the tongue of the volunteers; conditions: human, in vivo

Molecule | Pungency index
3-(4-allyloxy phenyl)-2E-propenoic acid morpholine amide [viii] | 10^4
3-[(2H)-2,2-dimethyl-3,4-dihydro-benzopyran-6yl]-2E-propenoic acid morpholine amide [ix] | 10^6
O=C(/C=C/C=C/c1ccc2c(c1)OCO2)N1CCCCC1 [A, reference compound] | 10^4
COc1ccc(/C=C/C=C/C(=O)N2CCOCC2)cc1 [i, 5-(4-methoxyphenyl)-2E, 4E-pentadienoic acid morpholine amide] | 10^6
CC(C)Oc1ccc(/C=C/C=C/C(=O)N2CCOCC2)cc1 [ii, 5-(4-isopropyloxyphenyl)-2E, 4E-pentadienoic acid morpholine amide] | 10^7
CC1(C)CCc2cc(/C=C/C=C/C(=O)N3CCOCC3)ccc2O1 [iii, 5-(2H)-2,2-dimethyl-3,4-dihydro-benzopyran-6yl-2E, 4E-pentadienoic acid morpholine amide] | 10^4
O=C(/C=C/C=C/c1ccc2c(c1)OCCO2)N1CCOCC1 [iv, 5-(3,4-ethylenedioxyphenyl)-2E, 4E-pentadienoic acid morpholine amide] | 10^4
COc1ccc(/C=C/C(=O)N2CCOCC2)cc1 [v, 3-(4-methoxyphenyl)-2E-propenoic acid morpholine amide] | 10^5
CC(C)Oc1ccc(/C=C/C(=O)N2CCOCC2)cc1 [vi, 3-(4-isopropyloxyphenyl)-2E-propenoic acid morpholine amide] | 10^6
CCCCOc1ccc(/C=C/C(=O)N2CCOCC2)cc1 [vii, 3-(4-butyloxyphenyl)-2E-propenoic acid morpholine amide] | 10^7
O=C(/C=C/c1ccc2c(c1)OCCO2)N1CCOCC1 [x, 3-(3,4-ethylenedioxyphenyl)-2E-propenoic acid morpholine amide] | 10^4

system: tongue; conditions: in vivo; cited from earlier work

Molecule | heat units (pungency)
COc1cc(CNC(=O)CCCC/C=C/C(C)C)ccc1O [capsaicin] | 10^7 units

system: hepatic drug metabolizing enzymes; conditions: rat, in vivo; cited from earlier work

Molecule | effect on hepatic drug metabolizing enzymes
O=C(/C=C/C=C/c1ccc2c(c1)OCO2)N1CCCCC1 [piperine] | inhibiting their activity

From patent US7262296B2 (priority 2002, dated 2007)
